One test deals with T1, menin-MLL interaction (Homo sapiens, UniProt O00255).
T1 sequence (O00255 1-610): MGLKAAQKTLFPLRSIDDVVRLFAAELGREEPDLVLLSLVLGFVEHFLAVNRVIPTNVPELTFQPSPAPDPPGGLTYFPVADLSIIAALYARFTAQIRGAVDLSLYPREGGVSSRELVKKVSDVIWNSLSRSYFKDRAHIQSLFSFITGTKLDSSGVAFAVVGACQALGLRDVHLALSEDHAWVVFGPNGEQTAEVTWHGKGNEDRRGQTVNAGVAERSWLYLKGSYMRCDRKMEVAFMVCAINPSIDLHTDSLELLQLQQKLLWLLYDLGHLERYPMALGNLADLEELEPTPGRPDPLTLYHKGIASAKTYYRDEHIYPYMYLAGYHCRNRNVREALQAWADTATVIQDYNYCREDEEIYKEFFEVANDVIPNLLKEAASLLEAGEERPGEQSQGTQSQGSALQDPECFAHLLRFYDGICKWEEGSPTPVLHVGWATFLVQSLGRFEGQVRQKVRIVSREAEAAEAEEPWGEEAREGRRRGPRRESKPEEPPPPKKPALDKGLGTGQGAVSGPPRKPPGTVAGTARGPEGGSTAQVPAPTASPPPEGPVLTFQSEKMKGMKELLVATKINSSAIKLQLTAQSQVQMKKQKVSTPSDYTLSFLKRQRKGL
Nature of the test: biochemical.

Another test has as its system Hoxa9 and Meis1. Nature of the test: Expression level of Hoxa9 and Meis1 in MLL-AF9 transformed bone marrow cells. It is filed as cell-based, murine. Conditions: FIG. 1B.
Another test deals with ML-2. Nature of the test: Apoptosis in human MLL leukemia cell line ML-2. It is filed as cell-based. The conditions noted are these: FIG. 8A.
Test [1] concerns MLL-AF9 transformed murine bone marrow cells. Nature of the test: Colony forming assay in MLL-AF9 transformed murine bone marrow cells. It is filed as cell-based. The conditions noted are these: FIG. 10.
In test [2] the test system is MV4;11. As to the kind of experiment: Differentiation of human MLL leukemia cell line MV4;11. In kind it is cell-based. Conditions: FIG. 6, FIG. 7.
The subject of the next test is KOPN8. Nature of the test: Differentiation of human MLL leukemia cell line KOPN8. Conditions: FIG. 7. In kind it is cell-based.
Test [3] concerns MV4;11. As to the kind of experiment: Apoptosis in human MLL leukemia cell line MV4;11. In kind it is cell-based. The conditions noted are these: FIG. 8A.
The subject of a further test is Kasumi-1. Nature of the test: Apoptosis in control cell line Kasumi-1 without MLL translocation. It is filed as cell-based. The conditions noted are these: Kasumi-1 control cell line without MLL translocation; FIG. 8B.
For the next test, the system named is MonoMac-6. Nature of the test: Differentiation of human MLL leukemia cell line MonoMac-6. It is filed as cell-based. Conditions: FIG. 7.
In the next test the test system is MI-2. Nature of the test: Differentiation of human MLL leukemia cell line MI-2. It is filed as cell-based. Conditions: FIG. 7.
In another test the test system is MLL leukemia cells. As to the kind of experiment: Cell cycle arrest in MLL leukemia cells. In kind it is cell-based. Conditions: different MLL leukemia cells; FIG. 9.
Test [4] relates to MLL-AF9 transformed murine bone marrow cells. As to the kind of experiment: Differentiation of MLL-AF9 transformed murine bone marrow cells. It is filed as cell-based. The conditions noted are these: for differentiation as assessed by increased expression of the CD11b differentiation marker: FIG. 4; for differentiation as assessed by significant change in morphology: FIG. 5.
For test [5] the test system is unchanged. As to the kind of experiment: Proliferation of MLL-AF9 transformed murine bone marrow cells. In kind it is cell-based. Conditions: FIG. 2.
In test [6] the test system is MLL-ENL transformed murine bone marrow cells. Nature of the test: Proliferation of MLL-ENL transformed murine bone marrow cells. It is filed as cell-based. Conditions: FIG. 2.

Consider 26 compounds from US9212180B2 (priority 2013, dated 2015).

Structures are written as SMILES.
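Throughout, for IC50: fluorescence polarization competition assay, inhibitors lower the fluorescence anisotropy signal, IC50 taken from this drop.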

Description for menin-MLL interaction: Fluorescence Polarization Assay.
Compounds that inhibit the interaction decrease the fluorescence anisotropy which is being used as a read-out for compound screening and for IC50 determination. For validation of the FP assay, a control competition experiment with unlabeled MLL peptide (no fluorescein attached) was performed.

Compound `CCOC(c1ccccc1)(c1ccccc1)C1CCN(CCCOc2ccc(C#N)cc2)CC1` [Compound B54] registered an IC50 against menin-MLL interaction of 5.3 µM.
On menin-MLL interaction, `O[C@H](COc1ccc(OC(F)(F)F)cc1)CN1CCC(C(O)(c2ccccc2)c2ccccc2)CC1` [Compound B48] registered an IC50 of 31 µM.
`N#Cc1ccc(OCCCN2CCC([C@](O)(c3ccccc3)C3CCCC3)CC2)cc1` [Compound B19]: the “expression level of Hoxa9 and Meis1” value in the test on Hoxa9 and Meis1 is on record as “strongly downregulates”. The apoptosis result in the test on ML-2 is listed as “induce apoptosis”; in the test on MV4;11 [3], “induce apoptosis”; in the test with Kasumi-1, “No effect on apoptosis”. Also, the “transforming properties of MLL-AF9 fusion protein (colony number, morphology of colonies)” value in test [1] is on record as “reduce transforming properties”. Further, the “differentiation (CD11b expression and morphology change)” value with MV4;11 [2] is “induce differentiation”. The “differentiation (change in the CD11b expression and change in morphology of cells)” value with KOPN8, in the test on MonoMac-6 and in the test on MI-2 was “induce differentiation” in each case. In addition, in the test with MLL leukemia cells, the cell cycle arrest entry is “induce cell cycle arrest”. Besides, the “differentiation as assessed by increased expression of the CD11b differentiation marker” value in test [4] is “induces differentiation”. Moreover, the “differentiation as assessed by significant change in morphology” value in test [4] was “induces differentiation”.
`N#Cc1ccc(OCCCN2CCC(C(O)(c3ccccc3)c3ccc(F)cc3)CC2)cc1` (stereo not drawn) [Compound B13] gave an IC50 against menin-MLL interaction of 77.5 µM. This counts as double-digit micromolar.
The compound `N#Cc1ccc(OCCCN2CCC(C(O)(c3cccc(F)c3)c3nccs3)CC2)cc1` (stereo not drawn) [Compound B83] came in with an IC50 against menin-MLL interaction of 0.407 µM. Against the preceding compound, the IC50 is about 190-fold lower.
At menin-MLL interaction, `N#Cc1ccc(OCCCN2CCC(C(O)(c3ccccn3)C3CCCC3)CC2)cn1` (stereo not drawn) [Compound B64] gave an IC50 of 4.05 µM. This IC50 is about 10-fold higher than that of the compound before.
The compound `N#Cc1ccc(OC[C@@H](O)CN2CCC(C(O)(c3ccccc3)c3ccccc3)CC2)cc1F` [Compound B51] showed an IC50 against menin-MLL interaction of 15 µM.
As for `N#Cc1ccc(OCCCN2CCC([C@@](O)(c3ccccc3)C3CCCC3)CC2)cc1` [Compound B20], in the test with Hoxa9 and Meis1, the “expression level of Hoxa9 and Meis1” value was “strongly downregulates”. For the same compound, the apoptosis result with ML-2 is reported as “induce apoptosis”; in the test on MV4;11 [3], “induce apoptosis”; in the test on Kasumi-1, “No effect on apoptosis”. Moreover, in test [1], the “transforming properties of MLL-AF9 fusion protein (colony number, morphology of colonies)” value is “reduce transforming properties”. Also, the “differentiation (CD11b expression and morphology change)” value in the test on MV4;11 [2] is reported as “induce differentiation”. The “differentiation (change in the CD11b expression and change in morphology of cells)” value in the test on KOPN8, in the test with MonoMac-6 and in the test with MI-2 was “induce differentiation” each time. Moreover, in the test with MLL leukemia cells, the cell cycle arrest entry was “induce cell cycle arrest”. Moreover, the “differentiation as assessed by increased expression of the CD11b differentiation marker” value in test [4] was “induces differentiation”. For the same compound, the “differentiation as assessed by significant change in morphology” value in [4] was “induces differentiation”.
On menin-MLL interaction, `NCc1ccc(OCCCN2CCC(C(O)(C3=CCCC3)c3ccccc3)CC2)cc1` (stereo not drawn) [Compound B34] gave a 50% inhibitory concentration (IC50) of 13.9 µM. That is a double-digit micromolar value.
The same measure, in the same setting: next, `N#Cc1ccc(OCCCN2CCC(C(O)(c3ccccc3)c3ccccc3)CC2)cc1F` [Compound B6]: 26.5 µM; `N#Cc1ccc(OCC(O)CN2CCC(C(O)(c3cccc(F)c3)c3ccccn3)CC2)cc1` (stereo not drawn) [Compound B86, 4-(3-(4-((3-Fluorophenyl)(hydroxy)(pyridin-2-yl)methyl)piperidin-1-yl)-2-hydroxypropoxy)benzonitrile]: 0.222 µM; `OC(c1ccccc1)(c1ccccc1)C1CCN(CCCOc2ccc(Cl)cc2)CC1` [Compound B5]: 96 µM.
`N#CCc1ccc(OCCCN2CCC(C(O)(c3ccccc3)c3ccccc3)CC2)cc1` [Compound B40] returned an IC50 on menin-MLL interaction of 17.4 µM.
`N#Cc1ccc(OC[C@H](O)CN2CCC(C(O)(c3ccccc3)C3CCCC3)CC2)cc1` (stereo partly drawn) [Compound B41] displayed an IC50 against menin-MLL interaction of 1.15 µM.
For `N#Cc1ccc(OC[C@@H](O)CN2CCC(C(O)(c3ccccc3)c3ccccc3)CC2)c(F)c1` [Compound B50], the IC50 against menin-MLL interaction came to 40 µM.
Take `N#Cc1ccc(OCCCN2CCC(C(O)(C3CCCC3)C3CCCCN3)CC2)cc1` (stereo not drawn) [Compound B63]: the IC50 at menin-MLL interaction was 28 µM.
`NCc1ccc(OCCCN2CCC([C@@](O)(c3ccccc3)C3CCCC3)CC2)cc1` [Compound B28] gave an IC50 on menin-MLL interaction of 13.1 µM.
As for `[N-]=[N+]=Nc1ccc(OCCCN2CCC(C(O)(c3ccccc3)c3ccccc3)CC2)cc1` [Compound B14], half-maximal inhibition at menin-MLL interaction (IC50) required 58 µM.
`COc1ccc(C(O)(C2CCCC2)C2CCN(CCCOc3ccc(C#N)cc3)CC2)cn1` (stereo not drawn) [Compound B57] registered an IC50 against menin-MLL interaction of 75 µM. The IC50 values of the last two compounds are within 1.5-fold of each other.
Regarding `N#Cc1ccc(OCCCN2CCC(C(O)c3ccccc3)CC2)cc1` (stereo not drawn) [B76 (NC)], the apoptosis result is “but not the control compound (NC) induce apoptosis” in the test with ML-2, “but not the control compound (NC) induce apoptosis” in the test with MV4;11 [3] and “No effect on apoptosis” in the test with Kasumi-1. For the same compound, in test [1], the “transforming properties of MLL-AF9 fusion protein (colony number, morphology of colonies)” value is given as “but not NC reduce transforming properties”. The inhibition of proliferation entry in test [5] and in [6] was “No such effect” each time. The cell cycle arrest result with MLL leukemia cells is “No such effect”.
Turning to `OC(c1ccccc1)(c1ccccc1)C1CCN(CCCOc2ccncc2)CC1` [Compound B37], the IC50 against menin-MLL interaction was determined as 25 µM. That is a double-digit micromolar value.
The same measure, in the same setting: next, `OC(c1ccccc1)(c1ccccc1)C1CCN(CCCOc2ccc(-n3ccnn3)cc2)CC1` [Compound B10, (1-(3-(4-(1H-1,2,3-triazol-1-yl)phenoxy)propyl)piperidin-4-yl)diphenylmethanol]: 29 µM; `N#Cc1ccc(OCCCN2CCC(C(O)(c3ccccc3)C3CCCC3)CC2)cn1` (stereo not drawn) [Compound B61]: 8.94 µM; `OC(c1ccccc1)(c1ccccc1)C1CCN(CCCOc2ccc(-c3cncnc3)cc2)CC1` [Compound B39]: 83 µM.
On the same count and under the same terms, the figure for `NS(=O)(=O)c1ccc(OCCCN2CCC(C(O)(c3cccc(F)c3)c3nccs3)CC2)cc1` (stereo not drawn) [Compound B82] is 0.354 µM.
The compound `COc1cccc(C(O)(C2CCCC2)C2CCN(CCCOc3ccc(C#N)cc3)CC2)c1` (stereo not drawn) [Compound B68] registered a 50% inhibitory concentration (IC50) at menin-MLL interaction of 1.1 µM.
